Experimental data from US20250204541A1, “GAS PHASE TREATMENT OF PRODUCE” (priority 2022, published 2025).

Tests used:
Assay type in all cases: in vivo
Botrytis cinerea (Bc) = assay: Antifungal activity of AITC vapor against Botrytis cinerea in strawberries; details: for strawberries infected: Example 14, ambient temperature, day 6
Procedure: Example 13. The antifungal activity of AITC vapor against Bc in strawberries was tested. All samples were wounded by making a 3 mm deep puncture in the skin. Samples were infected by dispensing 1000 Bc spores suspended in 10 μL of water in the wound. Samples were then incubated at ambient temperature, imaged, and assessed for mold over the following 3 days. The test group consisted of strawberries that were: uninfected and untreated; infected and untreated; and exposed for 30 minutes to the vapor of 125 μL AITC dispensed on Whatman filter paper. […] The infection rates in the initially uninfected sample indicate that the step involving the initial infection of the wound by dispensing the Bc spores may not be necessary to promote infection in the test groups.
Example 14. The antifungal activity of a range of AITC vapor concentrations against Bc in strawberries was tested. Samples were treated by exposure for 30 minutes to the vapor of a range of volumes of AITC disposed on a filter paper disc, then incubated at ambient temperature, imaged, and assessed for mold over the following 6 days. Test groups consisted of strawberries that were untreated and strawberries exposed to the vapor of 62.5 μL, 125 μL, 250 μL, and 500 μL of AITC. […] On day 6, 83% of the untreated control strawberries were infected, 100% of the 62.5 μL AITC dose strawberries were infected, 13% of the 125 μL AITC dose strawberries were infected, and 0% of the 250 and 500 μL AITC dose strawberries were infected. For strawberries incubated at room temperature, all of the AITC doses above 62.5 μL were effective at preventing mold, with doses above 125 μL substantially eliminating mold.
Example 15. The antifungal activity of AITC vapor under different exposure conditions against Bc in strawberries was tested. Test groups consisted of strawberries that were untreated and treated by exposure for 30 minutes to the vapor of 125 μL of AITC disposed on a filter paper disc. Test groups were then incubated in either open or closed containers at 4° C., imaged, and assessed for mold over the following 14 days. […] All samples were free of mold through 7 days. On day 12, 16.7% of the open air controls were infected, 29.2% of closed container controls were infected, and 0% of the AITC treated were infected. On day 14, 33.3% of the open air controls were infected, 41.7% of closed container controls were infected, 0% of the open air AITC treated were infected, and 4.2% of the closed container AITC treated were infected. For strawberries incubated at 4° C., AITC treatment was effective in reducing the incidence of mold over a two week period. While ⅓ of the open air untreated samples were infected, none of the open air AITC-treated were infected. Over 40% of the closed container controls were infected. A single strawberry was infected in the closed container AITC-treated test group.
Example 16. The antifungal activity of AITC vapor against Bc in strawberries treated with a coating agent (95 wt % glyceryl monostearate and 5 wt % sodium stearate) and exposed to vapor in clamshells was tested. Test groups consisted of strawberries that were: untreated; dipped in 40 g/L solution of the coating agent; exposed for 30 minutes to the vapor of 125 μL of AITC disposed on a filter paper disc; and dipped in 40 g/L solution of the coating agent and exposed for 30 minutes to the vapor of 125 μL of AITC disposed on a filter paper disc. Samples were treated, incubated at ambient temperature, imaged, and assessed for mold over the following 4 days. […] On day 3, 52.8% of the controls were infected, 42.1% of the coating agent were infected, 26.3% of the AITC were infected, and 9.3% of the coating agent+AITC were infected. On day 4, 88.9% of the controls were infected, 76.3% of the coating agent were infected, 71% of the AITC were infected, and 34.9% of the coating agent+AITC were infected. […] Bowl dipping in the coating solution also presented challenges for drying around the calyx.
Example 17. […]

mold = assay: Mold growth on produce exposed to AITC in an airtight bin (general description); details: for effect on mold growth on the produce: AITC concentration of 1000 ppm, airtight bin
Procedure: The plurality of produce items is contacted with the antimicrobial agent for a length of time in a range of 1 minute to 100 hours (e.g., 10 minutes to 1 hour). The length of time is dependent on a variety of factors, such as type of produce, target pathogen, and the degree to which the enclosure is sealed. Examples include exposure times between 15 minutes and 96 hours for allyl isothiocyanate (AITC) in an airtight bin. […] Lower antimicrobial agent concentrations with longer exposure times or higher antimicrobial concentrations with shorter exposure times can also be used. For example, the plurality of produce items is contacted with the antimicrobial agent for a length of time in a range of 15 minute to 72 hours.
A concentration of the antimicrobial agent in the headspace of the enclosure is typically in a range of about 20 parts per million by volume (ppmv) to about 5000 ppmv (e.g., about 550 ppmv to about 4800 ppmv, or about 25 ppmv to about 1250 ppmv). Depending on type of produce and exposure time in the enclosure, antimicrobial agent concentrations greater than about 2200 ppmv can sometimes damage the produce. […] In some embodiments, the antimicrobial agent is provided in a concentration to the enclosure in a headspace at least about 1200 ppmv, at least about 1250 ppmv, or about 1250 ppmv to about 5000 ppmv, or about 1250 ppmv to about 4900 ppmv.

[1] = system: Penicillium digitatum (Pd); assay: Antifungal activity of vapor against Penicillium digitatum in wounded, infected mandarins; details: for effect on Pd infection: airtight container with fan, 18 hours, then 6 days; for infected: 125 μL, 30 minutes

SMILES: C=CCN=C=S [AITC, allyl isothiocyanate]
- samples showing visible mold (Botrytis cinerea (Bc); Example 13, strawberries, 30 minutes vapor of 125 μL, after 24 hours): no mold was visible
- fraction of samples showing visible mold (Botrytis cinerea (Bc); Example 13, strawberries, 30 minutes vapor of 125 μL, after 48 hours): ⅛
- fraction of samples showing visible mold (Botrytis cinerea (Bc); Example 13, strawberries, 30 minutes vapor of 125 μL, after 72 hours): ¼
- strawberries infected (Botrytis cinerea (Bc); 62.5 μL dose, 30 minutes): 100%
- strawberries infected (Botrytis cinerea (Bc); 125 μL dose, 30 minutes): 13%
- strawberries infected (Botrytis cinerea (Bc); 250 μL dose, 30 minutes): 0%
- strawberries infected (Botrytis cinerea (Bc); 500 μL dose, 30 minutes): 0%
- infected (Botrytis cinerea (Bc); Example 15, strawberries, 125 μL, 30 minutes, 4° C., closed container, day 14): 4.2%
- infected (Botrytis cinerea (Bc); Example 15, strawberries, 125 μL, 30 minutes, 4° C., open air, day 14): 0%
- infected (Botrytis cinerea (Bc); Example 15, strawberries, 125 μL, 30 minutes, 4° C., open or closed containers, day 12): 0%
- mold (Botrytis cinerea (Bc); Example 15, strawberries, 125 μL, 30 minutes, incubated at 4° C., through 7 days): free of mold
- infected (Botrytis cinerea (Bc); Example 16, strawberries in clamshells, coating agent 40 g/L dip, AITC 125 μL 30 minutes, ambient, day 3): 26.3%
- infected (Botrytis cinerea (Bc); Example 16, strawberries in clamshells, coating agent 40 g/L dip, AITC 125 μL 30 minutes, ambient, day 4): 71%
- effect on mold growth on the produce (mold; exposure time of 15 minutes): slowed mold growth on the produce
- effect on mold growth on the produce (mold; exposure time of 30 min or longer): showed good efficacy
- effect on mold growth (mold; AITC concentrations in a range of 550 ppmv to 4800 ppmv): some inhibitory effect on mold growth
- effect on mold growth (mold; AITC concentrations over 1000 ppmv): tended to be completely inhibitory
- effect on Pd infection at 50% of the minimum inhibitory concentration ([1]; 62.5 μL AITC vapor for 30 minutes, assessed after 6 days): tends to reduce the severity of infection, but not eliminate the incidence of infection
- effect on Pd infection ([1]; 62.5 μL on filter paper disc): reduced the severity of infection relative to the untreated group
- effect on Pd mold ([1]; 125 μL on filter paper, airtight container, 2 hour exposure, assessed after 6 days): substantially eliminated the mold
- effect on Pd infection ([1]; 500 μL on filter paper disc): substantially prevented the growth mold
- infected ([1]; treated 24 hours after infection, assessed after 6 days): 8.3%
- infected ([1]; treated 48 hours after infection, assessed after 6 days): 25%
- infected ([1]; treated 72 hours after infection, assessed after 6 days): 16.7%
- infected ([1]; treated 96 hours after infection, assessed after 6 days): 81.6%
- infected ([1]; treated immediately after infection (0 hours), assessed after 6 days): 58.3%
